Molecular target: OSBP (oxysterol-binding protein) (Homo sapiens, UniProt P22059)
Experiment: cell-based

OSBP (oxysterol-binding protein), sequence (P22059 2-807): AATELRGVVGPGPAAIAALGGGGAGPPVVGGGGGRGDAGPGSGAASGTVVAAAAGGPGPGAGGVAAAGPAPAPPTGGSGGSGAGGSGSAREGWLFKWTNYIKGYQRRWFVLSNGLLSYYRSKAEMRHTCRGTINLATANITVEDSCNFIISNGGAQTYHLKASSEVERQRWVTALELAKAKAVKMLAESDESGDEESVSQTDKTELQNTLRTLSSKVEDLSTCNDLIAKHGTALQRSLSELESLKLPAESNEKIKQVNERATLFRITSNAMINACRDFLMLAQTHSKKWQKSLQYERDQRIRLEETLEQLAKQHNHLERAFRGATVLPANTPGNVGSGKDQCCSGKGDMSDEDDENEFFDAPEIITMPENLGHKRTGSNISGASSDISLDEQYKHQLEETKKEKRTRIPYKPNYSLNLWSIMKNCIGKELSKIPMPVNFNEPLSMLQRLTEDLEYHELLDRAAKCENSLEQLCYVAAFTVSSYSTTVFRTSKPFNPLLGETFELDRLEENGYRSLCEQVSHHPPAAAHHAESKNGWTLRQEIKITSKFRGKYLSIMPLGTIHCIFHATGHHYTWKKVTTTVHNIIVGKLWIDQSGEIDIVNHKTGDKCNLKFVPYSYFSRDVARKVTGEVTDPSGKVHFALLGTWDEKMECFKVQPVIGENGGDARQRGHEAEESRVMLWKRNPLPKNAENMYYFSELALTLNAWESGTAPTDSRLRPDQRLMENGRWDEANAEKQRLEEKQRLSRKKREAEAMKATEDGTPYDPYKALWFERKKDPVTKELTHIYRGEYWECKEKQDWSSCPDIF
OSBP (oxysterol-binding protein), sequence (O75344 whole entry partner): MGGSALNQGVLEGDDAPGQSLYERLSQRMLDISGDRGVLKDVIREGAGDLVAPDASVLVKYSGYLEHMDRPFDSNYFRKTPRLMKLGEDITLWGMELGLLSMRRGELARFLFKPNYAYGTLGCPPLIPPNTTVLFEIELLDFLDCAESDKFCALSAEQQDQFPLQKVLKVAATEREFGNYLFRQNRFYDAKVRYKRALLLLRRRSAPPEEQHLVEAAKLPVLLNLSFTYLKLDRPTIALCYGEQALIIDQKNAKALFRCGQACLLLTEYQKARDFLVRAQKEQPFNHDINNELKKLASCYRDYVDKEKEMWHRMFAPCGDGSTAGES

## COc1ccc(C(=O)O[C@H]2[C@H](O[C@@H]3[C@@H](OC(C)=O)[C@H](O[C@H]4C[C@H]5[C@@H]6CC=C7C[C@@H](O)CC[C@]7(C)[C@H]6CC[C@]5(C)[C@@]4(O)[C@H](C)C(=O)CCC(C)C)OC[C@@H]3O)OC[C@@H](O)[C@@H]2O)cc1 [OSW-1]
  EC50: 60 nM

Source: PMC4104544 (Cell, 2014)
